Experiments:
in vitro [1] = assay: in vitro
in vitro [2] = details: human, plasma
[3] = pH 7.4
clinical = details: human, in vivo, iv
[4] = Ionisation constant (pKa); format: physicochemical

| Structure (SMILES) | fraction unbound (in vitro [1]) | fraction unbound (in vitro [2]) | Fraction ionised [3] | Vd (clinical) [L/kg] | chromatographic logD (physchem) | fraction unbound (in vitro [1]; tissues) | pKa [4] |
| --- | --- | --- | --- | --- | --- | --- | --- |
| CC(=O)O[C@H]1C(=O)[C@@]2(C)[C@H]([C@H](OC(=O)c3ccccc3)[C@]3(O)C[C@H](OC(=O)[C@H](O)[C@@H](NC(=O)c4ccccc4)c4ccccc4)C(C)=C1C3(C)C)[C@]1(OC(C)=O)CO[C@@H]1C[C@@H]2O [PACLITAXEL] | 0.005 | 0.03 | 0 | 2.4 | 4.45 | – | – |
| CNS(=O)(=O)Cc1ccc2[nH]cc(CCN(C)C)c2c1 | – | […] | 0.992 | 0.65 | – | 0.661 | 9.5 |
| CNC(=C[N+](=O)[O-])NCCSCc1ccc(CN(C)C)o1 [RANITIDINE] | – | – | 0.922 | 1.3 | – | 0.289 | 8.47 |
| CN1CCC[C@H]1c1cccnc1 [NICOTINE] | 0.15 | – | 0.834 | 2.6 | 0.23 | – | – |
| COC(=O)[C@H]1[C@@H](OC(=O)c2ccccc2)C[C@@H]2CC[C@H]1N2C [COCAINE] | – | 0.09 | 0.952 | 2 | – | 0.018 | – |
| CCC(C)n1ncn(-c2ccc(N3CCN(c4ccc(OCC5COC(Cn6cncn6)(c6ccc(Cl)cc6Cl)O5)cc4)CC3)cc2)c1=O (centres undefined) [ITRACONAZOLE] | – | 0.028 | 0 | 3.9 | 5.79 | – | Not Active |
| CN/C(=N/CCSCc1nc[nH]c1C)NC#N [CIMETIDINE] | 0.374 | 0.81 | 0.271 | 1 | – | – | 6.97 |
| CCCCCc1cc(O)c2c(c1)OC(C)(C)[C@@H]1CCC(C)=C[C@@H]21 [DRONABINOL] | – | 0.03 | 0 | 9.8 | 6.8 | 0.001 | – |
| Cc1ncc([N+](=O)[O-])n1CCO [METRONIDAZOLE] | – | 0.89 | 0 | 0.74 | – | 0.609 | Not Active |
| O=C(NCC1CCCCN1)c1cc(OCC(F)(F)F)ccc1OCC(F)(F)F (centres undefined) [FLECAINIDE] | – | 0.39 | 0.988 | 4.9 | – | 0.031 | – |
| C[C@]12CC[C@@H]3c4ccc(O)cc4CC[C@H]3[C@@H]1CC[C@@H]2O [ESTRADIOL] | – | 0.015 | 0 | 1.2 | – | 0.005 | – |
| OC(Cn1cncn1)(Cn1cncn1)c1ccc(F)cc1F [FLUCONAZOLE] | – | – | 0 | 0.6 | – | 0.814 | Not Active |
| C#CCCCC(=O)c1cc(C(C)(C)C)c(O)c(C(C)(C)C)c1 [TEBUFELONE] | – | 0.00067 | 0 | 31 | 5.56 | 8e-06 | – |
| CCc1nn(CCCN2CCN(c3cccc(Cl)c3)CC2)c(=O)n1CCOc1ccccc1 [NEFAZODONE] | – | – | 0.197 | 0.51 | 4.83 | 0.008 | 6.79 |
| CCN(CC)CCCC(C)Nc1c2ccc(Cl)cc2nc2ccc(OC)cc12 (centres undefined) [QUINACRINE] | – | 0.103 | – | 223 | 1.1 | – | 10.2 |
| COc1cc2c(c(OC)c1OC)-c1ccc(OC)c(=O)cc1[C@@H](NC(C)=O)CC2 [COLCHICINE] | – | – | 0 | 4.2 | 0.9 | – | – |
| O=C(N[C@H](CO)[C@H](O)c1ccc([N+](=O)[O-])cc1)C(Cl)Cl [CHLORAMPHENICOL] | – | 0.47 | 0 | 0.94 | – | 0.225 | – |
| Cc1ccc(O)c([C@H](CCN(C(C)C)C(C)C)c2ccccc2)c1 [TOLTERODINE] | – | – | 0.997 | 1.3 | 1.04 | 0.012 | 9.87 |

| Structure (SMILES) | fraction unbound (in vitro [1]) | fraction unbound (in vitro [2]) | Fraction ionised [3] | Vd (clinical) [L/kg] | chromatographic logD (physchem) | fraction unbound (in vitro [1]; tissues) | pKa [4] |
| --- | --- | --- | --- | --- | --- | --- | --- |
| CN(C)CCC(c1ccc(Cl)cc1)c1ccccn1 (centres undefined) [CHLORPHENIRAMINE] | 0.037 | 0.3 | 0.986 | 3.2 | – | – | – |
| COc1ccc2[nH]c([S+]([O-])Cc3ncc(C)c(OC)c3C)nc2c1 (racemic) [OMEPRAZOLE] | – | – | 0 | 0.34 | – | 0.082 | Not Active |
| CN1CCCC(n2nc(Cc3ccc(Cl)cc3)c3ccccc3c2=O)CC1 (centres undefined) [AZELASTINE] | – | 0.17 | 0.993 | 15 | 1.93 | 0.004 | 9.54 |
| Cc1cc(=O)n(-c2ccccc2)n1C [ANTIPYRINE] | – | – | 0 | 0.6 | – | 0.825 | Not Active |
| CCOC(=O)C1=C(C)NC(C)=C(C(=O)OC)C1c1cccc(Cl)c1Cl (centres undefined) [FELODIPINE] | – | – | 0 | – | 4.52 | – | – |
| CN(C)CCCN1c2ccccc2Sc2ccc(Cl)cc21 [CHLORPROMAZINE] | 0.001 | 0.03 | 0.986 | 21 | – | – | – |
| CN/C(=C\[N+](=O)[O-])NCCSCc1csc(CN(C)C)n1 [NIZATIDINE] | – | 0.78 | 0.134 | 1.2 | – | 0.0289 | 6.59 |
| CC(=O)CCCCn1c(=O)c2c(ncn2C)n(C)c1=O [PENTOXIFYLLINE] | – | 1 | 0 | 4.2 | – | 0.095 | – |
| C[C@]12C=CC(=O)C=C1CC[C@@H]1[C@@H]2[C@@H](O)C[C@@]2(C)[C@H]1CC[C@]2(O)C(=O)CO [PREDNISOLONE] | 0.021 | 0.075 | 0 | 1.5 | – | – | – |
| O=C1CN=C(c2ccccn2)c2cc(Br)ccc2N1 [BROMAZEPAM] | – | 0.3 | 0 | 0.91 | – | 0.146 | Not Active |
| COCCc1ccc(OCC(O)CNC(C)C)cc1 (centres undefined) [METOPROLOL] | 0.084 | […] | 0.995 | 4.2 | – | – | – |
| Oc1ncnc2[nH]ncc12 [ALLOPURINOL] | – | 0.95 | 0 | 0.6 | – | 0.881 | Not Active |
| C=CCc1ccccc1OCC(O)CNC(C)C (centres undefined) [ALPRENOLOL] | – | 0.24 | 0.992 | 3.4 | – | 0.028 | – |
| CC(=O)Nc1ccc(O)cc1 [ACETAMINOPHEN] | – | 1 | 0 | 0.95 | 0.38 | 0.503 | Not Active |
| CN1C[C@H](C(=O)N[C@]2(C)O[C@@]3(O)[C@@H]4CCCN4C(=O)[C@H](Cc4ccccc4)N3C2=O)C=C2c3cccc4[nH]cc(c34)C[C@H]21 [ERGOTAMINE] | – | 0.02 | 0.074 | 2.7 | 4.3 | 0.003 | – |
| C[C@]12C=CC(=O)C=C1CC[C@@H]1[C@@H]2C(=O)C[C@@]2(C)[C@H]1CC[C@]2(O)C(=O)CO [PREDNISONE] | – | 0.25 | 0 | 0.97 | – | 0.113 | – |
| Cc1cccc(C)c1OCC(C)N (centres undefined) [MEXILETINE] | 0.03 | 0.37 | 0.981 | 4.9 | – | – | – |
| O=c1n(CCCN2CCN(c3cccc(Cl)c3)CC2)nc2ccccn12 [TRAZODONE] | – | 0.07 | 0.197 | 1 | – | 0.03 | 6.79 |

Reference: ChEMBL document CHEMBL1135488, “Prediction of volume of distribution values in humans for neutral and basic drugs using physicochemical measurements and plasma protein binding data” (J Med Chem, 2002)
